Broadly, the IC50 is the concentration that inhibits the measured activity by half. Low values mean greater potency in that assay, high ones weaker potency in that assay. As usually defined, the EC50 is the concentration at which the effect is half-maximal. Read a high EC50 as lower potency in that assay.

Assay [1] deals with truncated Influenza A/victoria/75 PA(1-209) (Influenza A virus (strain A/Victoria/3/1975 H3N2), UniProt P31343). The assay is described as follows: Endonuclease Inhibition Assay (PA FP Assay). It is filed as binding. The following applies: fluorescence polarization, fluorescein-labeled probe. How it is done: Endonuclease Inhibition Assay (PA FP Assay)
Compounds were dissolved and serially diluted in 100% DMSO then 0.5 μl was transferred to 384-well plates. 50 nM truncated Influenza A/victoria/75 PA(1-209) was prepared in assay buffer (20 mM Tris, pH=7.5, 10 mM MgCl2, 0.01% Tween 20, 100 mM NaCl and 1 mM DTT) and 20 ul was added to each well of assay plate with compounds, centrifuged for 1 min at 1000 rpm and incubated for 30 min at room temperature. 20 μl of 20 nM fluorescein-labeled probe [5-(4-(3-carboxy-3-oxopropanoyl)-4-(4-chlorobenzyl)piperidine-1-carbonyl)-2-(6-hydroxy-3-oxo-3H-xanthen-9-yl)benzoic acid] in assay buffer was then added, centrifuged for 1 min at 1000 rpm and incubated for 60 min at room temperature.
Fluorescence polarization was measured on Perkin Elmer Envision plate reader with excitation at 480 nm and emission at 535 nm and reported in millipolarization units (mP). IC50 values were determined relative to wells containing 125 uM of a compound known to bind to the active site of PA and uninhibited wells containing 1.25% DMSO.

For assay [2], the target named is RNP_CAL (PB2, PB1, PA, NP, influenza A Luciferase reporter in 293T cells) (Influenza A virus (strain swl A/California/04/2009 H1N1), UniProt C3W5S0). The assay can be described thus: cell-based.

Consider `O=c1cnn2c(c1O)-c1nccn1C[C@@H]2[C@H](c1ccc(F)cc1)c1ccc(C(F)(F)F)nc1` [Example 20, (S)-6-((R)-(4-fluorophenyl)(6-(trifluoromethyl)pyridin-3-yl)methyl)-11-hydroxy-5,6-dihydro-10H-imidazo[2′,1′:3,4]pyrazino[1,2-b]pyridazin-10-one], for which half-maximal inhibition in assay [1] (IC50) was put at 0.3 µM. The same molecule returned an EC50 in assay [2] of 0.72 µM. In assay [1], `O=c1cnn2c(c1O)-c1nccn1C[C@@H]2[C@@H](c1ccc(F)cc1)c1cccc(Br)c1` [Example 30, (S)-6-((S)-(3-bromophenyl)(4-fluorophenyl)methyl)-11-hydroxy-5,6-dihydro-10H-imidazo[2′,1′:3,4]pyrazino[1,2-b]pyridazin-10-one] returned an IC50 of 0.01 µM. Turning to `O=c1cnn2c(c1O)-c1nccn1C[C@@H]2[C@@H](c1ccc(F)cc1)c1ccc(Cl)cc1` [Example 33, (S)-6-((S)-(4-chlorophenyl)(4-fluorophenyl)methyl)-11-hydroxy-5,6-dihydro-10H-imidazo[2′,1′:3,4]pyrazino[1,2-b]pyridazin-10-one], it took 0.02 µM to reach half-maximal inhibition in assay [1] (IC50). The midpoint of the response in assay [2], the EC50, lay at 0.11 µM. As for `O=c1ccn2c(c1O)-c1nccn1CN2C(c1ccccc1)c1ccccc1` [Example 6, 6-benzhydryl-11-hydroxy-5H-imidazo[1,2-d]pyrido[2,1-f][1,2,4]triazin-10(6H)-one], in assay [1], the IC50 stood at 0.04 µM. The molecule further showed an EC50 in assay [2] of 0.19 µM. For `CC1(C)N(C(c2ccccc2)c2ccccc2)n2ccc(=O)c(O)c2-c2nccn21` [Example 75, 6-benzhydryl-11-hydroxy-5,5-dimethyl-5,6-dihydro-10H-imidazo[1,2-d]pyrido[2,1-f][1,2,4]triazin-10-one], in that order: 0.1 µM and 0.3 µM. `O=c1ccn2c(c1O)-c1ncc(C(F)F)n1C[C@@H]2C(c1ccccc1)c1ccccc1` [Example 57, (S)-6-benzhydryl-3-(difluoromethyl)-11-hydroxy-5H-imidazo[1,2-a]pyrido[2,1-c]pyrazin-10(6H)-one] gave a 50% inhibitory concentration (IC50) in assay [1] of 0.04 µM. A half-maximal effect in assay [2] (EC50) was put at 0.18 µM. Consider `O=c1ccn2c(c1O)-c1ncc(CO)n1C[C@@H]2C(c1ccccc1)c1ccccc1` [Example 54, (S)-6-benzhydryl-11-hydroxy-3-(hydroxymethyl)-5,6-dihydro-10H-imidazo [1,2-a]pyrido[2,1-c]pyrazin-10-one], for which the 50% inhibitory concentration (IC50) in assay [1] came out at 0.1 µM. In assay [2], `Cc1cc(F)ccc1[C@H](c1ccc(F)cc1)[C@H]1Cn2ccnc2-c2c(O)c(=O)cnn21` [Example 27, (S)-6-((S)-(4-fluoro-2-methylphenyl)(4-fluorophenyl)methyl)-11-hydroxy-5,6-dihydro-10H-imidazo[2′,1′:3,4]pyrazino[1,2-b]pyridazin-10-one] gave a concentration giving a half-maximal response (EC50) of 0.05 µM. In assay [2], `O=c1cnn2c(c1O)-c1nccn1C[C@@H]2[C@@H](c1ccc(F)cc1)c1ccc(F)c(F)c1` [Example 25, (S)-6-((S)-(3,4-difluorophenyl)(4-fluorophenyl)methyl)-11-hydroxy-5H-imidazo[2′,1′:3,4]pyrazino[1,2-b]pyridazin-10(6H)-one] registered an EC50 of 0.056 µM.

Consider `O=c1cnn2c(c1O)-c1nccn1CC2C(c1cccc(Cl)c1)c1cccc(Cl)c1` (stereo not drawn) [Example 11, 6-(bis(3-chlorophenyl)methyl)-11-hydroxy-5H-imidazo[2′,1′:3,4]pyrazino[1,2-b]pyridazin-10(6H)-one], for which a half-maximal response in assay [2] (EC50) required 0.08 µM. Same read-out and setting: as for `CC(=O)Oc1c2n(ncc1=O)[C@@H](C(c1ccc(F)cc1)c1ccc(F)cc1)Cn1ccnc1-2` [Example 85, (S)-6-(bis(4-fluorophenyl)methyl)-10-oxo-5,6-dihydro-10H-imidazo[2′,1′:3,4]pyrazino[1,2-b]pyridazin-11-yl acetate], the figure is 0.022 µM; as for `O=c1cnn2c(c1O)-c1nccn1CC2C(c1ccc(F)cc1)c1ccc(F)cc1` (stereo not drawn) [Example 12, 6-(bis(4-fluorophenyl)methyl)-11-hydroxy-5H-imidazo[2′,1′:3,4]pyrazino[1,2-b]pyridazin-10(6H)-one], 0.8 µM. `CCc1cnc2n1C[C@H](C(c1ccccc1)c1ccccc1)n1ccc(=O)c(O)c1-2` [Example 9, (S)-6-benzhydryl-3-ethyl-11-hydroxy-5H-imidazo[1,2-a]pyrido[2,1-c]pyrazin-10(6H)-one] showed an EC50 in assay [2] of 0.58 µM. Regarding `O=c1cnn2c(c1O)-c1nccn1C[C@@H]2[C@@H](c1ccc(F)cc1)c1cccc(C(F)(F)F)c1` [Example 21, (S)-6-((S)-(4-fluorophenyl)(3-(trifluoromethyl)phenyl)methyl)-11-hydroxy-5,6-dihydro-10H-imidazo[2′,1′:3,4]pyrazino[1,2-b]pyridazin-10-one], in assay [2], it took 0.052 µM to reach a half-maximal effect (EC50). On the same count and under the same terms, as for `CC(C)C(=O)Oc1c2n(ncc1=O)[C@@H](C(c1ccc(F)cc1)c1ccc(F)cc1)Cn1ccnc1-2` [Example 86, (S)-6-(bis(4-fluorophenyl)methyl)-10-oxo-5,6-dihydro-10H-imidazo[2′,1′:3,4]pyrazino[1,2-b]pyridazin-11-yl isobutyrate], the figure is 0.021 µM; as for `O=C(NC1CC1)c1cnc2n1C[C@H](C(c1ccccc1)c1ccccc1)n1ccc(=O)c(O)c1-2` [Example 70, (S)-6-benzhydryl-N-cyclopropyl-11-hydroxy-10-oxo-5,6-dihydro-10H-imidazo[1,2-a]pyrido[2,1-c]pyrazine-3-carboxamide], 1.7 µM. Still for that read-out and setting: as for `Cc1cnc2n1C[C@H](C(c1ccccc1)c1ccccc1)n1ccc(=O)c(O)c1-2` [Example 13, (S)-6-benzhydryl-11-hydroxy-3-methyl-5H-imidazo[1,2-a]pyrido[2,1-c]pyrazin-10(6H)-one], the figure is 0.31 µM. The same measure, in the same setting: the value for `O=c1ccn2c(c1O)-c1nccn1C(C1CC1)N2C1c2ccccc2CSc2ccccc21` (stereo not drawn) [Example 76, 5-cyclopropyl-6-(6,11-dihydrodibenzo[b,e]thiepin-11-yl)-11-hydroxy-5,6-dihydro-10H-imidazo[1,2-d]pyrido[2,1-f][1,2,4]triazin-10-one] was 0.16 µM. In the case of `O=c1ccn2c(c1O)-c1ncsc1CN2C(c1ccccc1)c1ccccc1` [Example 81, 5-benzhydryl-10-hydroxy-4,5-dihydro-9H-pyrido[1,2-b]thiazolo[4,5-d]pyridazin-9-one], a half-maximal response in assay [2] (EC50) required 7 µM.

`O=c1ccn2c(c1O)-c1nccn1C(C1CC1)N2C(c1ccccc1)c1ccccc1` (stereo not drawn) [Example 73, 6-benzhydryl-5-cyclopropyl-11-hydroxy-5,6-dihydro-10H-imidazo[1,2-d]pyrido[2,1-f][1,2,4]triazin-10-one] came in with a half-maximal effective concentration (EC50) in assay [2] of 0.17 µM. The molecule `O=c1cnn2c(c1O)-c1nccn1C[C@@H]2[C@@H](c1ccc(F)cc1)c1ccc(C(F)(F)F)cc1` [Example 32, (S)-6-((R)-(4-fluorophenyl)(4-(trifluoromethyl)phenyl)methyl)-11-hydroxy-5,6-dihydro-10H-imidazo[2′,1′:3,4]pyrazino[1,2-b]pyridazin-10-one] displayed an EC50 in assay [2] of 0.25 µM. Still for that read-out and setting: as for `O=c1ccn2c(c1O)-c1ncc(CNC3CCOCC3)n1C[C@@H]2C(c1ccccc1)c1ccccc1` [Example 65, (S)-6-benzhydryl-11-hydroxy-3-(((tetrahydro-2H-pyran-4-yl)amino)methyl)-5,6-dihydro-10H-imidazo[1,2-a]pyrido[2,1-c]pyrazin-10-one], the figure is 3.5 µM. On the same count and under the same terms, the value for `Cc1ccccc1[C@H](c1ccc(F)cc1)[C@H]1Cn2c(CO)cnc2-c2c(O)c(=O)cnn21` [Example 51, (S)-6-((S)-(4-fluorophenyl)(o-tolyl)methyl)-11-hydroxy-3-(hydroxymethyl)-5,6-dihydro-10H-imidazo[2′,1′:3,4]pyrazino[1,2-b]pyridazin-10-one] was 0.09 µM; that for `O=c1cnn2c(c1O)-c1nccn1C[C@@H]2C(c1cccc(Cl)c1)c1cccc(Cl)c1` [Example 15, (S)-6-(bis(3-chlorophenyl)methyl)-11-hydroxy-5H-imidazo [2′,1′:3,4] pyrazino [1,2-b]pyridazin-10(6H)-one] was 0.025 µM. The same measure, in the same setting: as for `O=c1cnn2c(c1O)-c1nccn1CC2C(c1ccc(Cl)cc1)c1ccc(Cl)cc1` (stereo not drawn) [Example 10, 6-(bis(4-chlorophenyl)methyl)-11-hydroxy-5H-imidazo[2′,1′:3,4]pyrazino[1,2-b]pyridazin-10(6H)-one], the figure is 0.32 µM; as for `O=c1cnn2c(c1O)-c1nccn1C[C@@H]2[C@@H](c1ccc(F)cc1)c1cc(F)cc(F)c1` [Example 34, (S)-6-((S)-(3,5-difluorophenyl)(4-fluorophenyl)methyl)-11-hydroxy-5H-imidazo[2′,1′:3,4]pyrazino[1,2-b]pyridazin-10(6H)-one], 0.025 µM; as for `N#Cc1ccc([C@H](c2ccc(F)cc2)[C@H]2Cn3ccnc3-c3c(O)c(=O)cnn32)cc1` [Example 45, 4-((R)-(4-fluorophenyl)((S)-11-hydroxy-10-oxo-5,6-dihydro-10H-imidazo[2′,1′:3,4]pyrazino[1,2-b]pyridazin-6-yl)methyl)benzonitrile], 0.042 µM. In turn, `CC(C)CC(=O)Oc1c2n(ncc1=O)[C@@H](C(c1ccc(F)cc1)c1ccc(F)cc1)Cn1ccnc1-2` [Example 87, (S)-6-(bis(4-fluorophenyl)methyl)-10-oxo-5,6-dihydro-10H-imidazo[2′,1′:3,4]pyrazino[1,2-b]pyridazin-11-yl 3-methylbutanoate] had an EC50 in assay [2] of 0.021 µM.

(Values after patent publication US10858366B2 (priority 2016, dated 2020).)
